# Data: US8129527B2, “Analogs of dehydrophenylahistins and their therapeutic use” (Nereus Pharmacuticals, Inc., priority 2006, dated 2012)
# Tested on: HT-29 human colorectal carcinoma cells
# Assay: Cell growth inhibition assay, resazurin (Table 3.2)
# Assay type: cell-based
# Conditions: HT-29, read-out: EC50 (M) Mean
# Protocol: The cytotoxic effects of various derivatives of dehydrophenylahistin against HT-29 human colorectal carcinoma cells were determined.
# HT-29 cells (ATCC; HTB-38) were maintained in ATCC recommended culture media and cultured in an incubator at 37° C. in 5% CO2 and 95% humidified air.
# For cell growth inhibition assays, HT-29 cells were seeded at 5×10^3 cells/well in 90 μl complete media into a Corning 3904 black-walled, clear-bottom tissue culture plates and the plates were incubated overnight to allow cells to establish and enter log phase growth. 20 mM stock solutions of compounds were prepared in 100% DMSO and stored at −80° C. 10× concentrated serial dilutions of the compounds were prepared in culture medium for final concentrations ranging from 20 μM to […]. Ten μl volumes of the 10× serial dilutions were added to the test wells in triplicate and the plates returned to the incubator for 48 hours. The final concentration of DMSO was 0.25% in all samples.
# Following 48 hours of drug exposure, 10 μl of 0.2 mg/ml resazurin (obtained from Sigma-Aldrich Chemical Co.) in Mg^2+, Ca^2+ free phosphate buffered saline was added to each well and the plates were returned to the incubator for 3-4 hours. […] Resazurin dye in medium without cells was used to determine the background, which was subtracted from the data for all experimental wells.
row,SMILES,EC50 [M]
1,"CC(C)(C)c1ocnc1/C=c1\[nH]c(=O)/c(=C/c2cccc([N+](=O)[O-])c2)[nH]c1=O [Compound 2479, tBu-Oxadelta-PLH-m-NO2]",1.08e-07
2,"CC(C)(C)c1ocnc1/C=c1\[nH]c(=O)/c(=C/c2ccc(Cl)o2)[nH]c1=O [Compound 2481, tBu-Oxadelta-PLH-5-Cl-2-furyl]",2.56e-07
3,"C=Cc1cccc(/C=c2\[nH]c(=O)/c(=C/c3ncoc3C(C)(C)C)[nH]c2=O)c1 [Compound 2482, tBu-Oxadelta-PLH-m-vinyl]",2.65e-08
4,"CC(C)(C)c1ocnc1/C=c1\[nH]c(=O)/c(=C/c2ccc(Br)o2)[nH]c1=O [Compound 2483, tBu-Oxadelta-PLH-5-Br-2-furyl]",2.48e-07
5,"CC(C)(C)c1ocnc1/C=c1\[nH]c(=O)/c(=C/c2cccs2)[nH]c1=O [Compound 2484, tBu-Oxadelta-PLH-2-thienyl]",1.05e-07
6,"Cc1cccc(/C=c2\[nH]c(=O)/c(=C/c3ncoc3C(C)(C)C)[nH]c2=O)c1C [Compound 2486, tBu-Oxadelta-PLH-2,3-diMe]",1.43e-07
7,"CC(C)(C)c1ocnc1/C=c1\[nH]c(=O)/c(=C/c2cccc(C(F)(F)F)c2)[nH]c1=O [Compound 2488, tBu-Oxadelta-PLH-m-CF3]",2.49e-07
8,"CC(C)(C)c1ocnc1/C=c1\[nH]c(=O)/c(=C/c2ccnc3ccccc23)[nH]c1=O [Compound 2500, tBu-oxadelta-PLH-4-quinoline]",3.99e-07
9,"CC(C)(C)c1ocnc1/C=c1\[nH]c(=O)/c(=C/c2cccc(Oc3ccccc3)c2)[nH]c1=O [Compound 2501, tBu-oxadelta-PLH-3-phenoxy]",2.39e-08
10,"Cc1oc(-c2ccccc2)cc1/C=c1\[nH]c(=O)/c(=C/c2ncoc2C(C)(C)C)[nH]c1=O [Compound 2505, tBu-oxadelta-PLH-2-Me-5-Ph-3-furyl]",> 6.32e-06
11,"CC(C)(C)c1ocnc1/C=c1\[nH]c(=O)/c(=C/c2cc3ccccc3n2S(=O)(=O)c2ccccc2)[nH]c1=O [Compound 2508, tBu-oxadelta-PLH-1-(Ph-sulfo)-2-indole]",> 6.32e-06
12,"CC(C)(C)c1ocnc1/C=c1\[nH]c(=O)/c(=C/c2ccc3nsnc3c2)[nH]c1=O [Compound 2509, tBu-oxadelta-PLH-2,1,3-benzothiadiazole]",4.04e-07
13,"CC(C)(C)c1ocnc1/C=c1\[nH]c(=O)/c(=C/c2cc3ccccc3s2)[nH]c1=O [Compound 2510, tBu-oxadelta-PLH-2-benzothiophen]",> 2e-05
14,"CC(C)(C)c1ocnc1/C=c1\[nH]c(=O)/c(=C/c2cc(F)cc3c2OCOC3)[nH]c1=O [Compound 2511, tBu-oxadelta-PLH-7-fluoro-2,4-benzodioxine]",2.39e-08
15,"CC(C)(C)c1ocnc1/C=c1\[nH]c(=O)/c(=C/c2cccc(C(=O)c3ccccc3)c2)[nH]c1=O [Compound 2512, tBu-oxadelta-PLH-3-benzoyl]",3.86e-09

# Same assay, conditions: Table 3.2, HT-29 cells, read-out: EC50 (M) Mean
row,EC50 [M],SMILES
1,5.37e-08,"CC(C)(C)c1ocnc1/C=c1\[nH]c(=O)/c(=C/c2ccoc2)[nH]c1=O [Compound 2478, tBu-Oxadelta-PLH-3-furanyl]"
2,1.61e-07,"Cc1ccsc1/C=c1\[nH]c(=O)/c(=C/c2ncoc2C(C)(C)C)[nH]c1=O [Compound 2480, tBu-Oxadelta-PLH-3-Me-2-thienyl]"
3,2.18e-07,"COc1ccccc1/C=c1\[nH]c(=O)/c(=C/c2ncoc2C(C)(C)C)[nH]c1=O [Compound 2485, tBu-Oxadelta-PLH-2-OMe]"
4,7.93e-08,"CC(C)(C)c1ocnc1/C=c1\[nH]c(=O)/c(=C/c2ccsc2)[nH]c1=O [Compound 2487, tBu-Oxadelta-PLH-3-thienyl]"
5,1.16e-07,"CC(C)(C)c1ocnc1/C=c1\[nH]c(=O)/c(=C\c2ccccc2)[nH]c1=O [Compound 2489, (E)-tBu-delta-PLH]"
6,9.48e-07,"CC(C)(C)c1ocnc1/C=c1\[nH]c(=O)/c(=C/CCc2ccccc2)[nH]c1=O [Compound 2496, tBu-oxadelta-PLH-Ph-pr]"
7,5.23e-06,"CCOc1ccc2ccccc2c1/C=c1\[nH]c(=O)/c(=C/c2ncoc2C(C)(C)C)[nH]c1=O [Compound 2497, tBu-oxadelta-PLH-2-OEt-1-naphth]"
8,1.67e-06,"COc1ccc2ccccc2c1/C=c1\[nH]c(=O)/c(=C/c2ncoc2C(C)(C)C)[nH]c1=O [Compound 2498, tBu-oxadelta-PLH-2-OMe-1-naphth]"
9,> 6.32e-06,"CC(C)(C)c1ocnc1/C=c1\[nH]c(=O)/c(=C/c2c3ccccc3cc3ccccc23)[nH]c1=O [Compound 2499, tBu-oxadelta-PLH-9-anth]"
10,1.88e-06,"CC(C)(C)c1ocnc1/C=c1\[nH]c(=O)/c(=C/c2ccc(-c3cccs3)s2)[nH]c1=O [Compound 2502, tBu-oxadelta-PLH-2,2′-bitio]"
11,> 6.32e-06,"CC(C)(C)c1ocnc1/C=c1\[nH]c(=O)/c(=C/c2cn(S(=O)(=O)c3ccccc3)c3ccccc23)[nH]c1=O [Compound 2507, tBu-oxadelta-PLH-1-(Ph-sulfo)-3-indole]"
12,9.24e-07,"CC(C)(C)c1ocnc1/C=C1\NC(=O)[C@H](Cc2ccccc2)NC1=O [Compound 2513, tBu-oxa-PLH]"

# Tested on: not given
# Assay: not given
# Conditions: not given
row,SMILES,melting point [°C]
1,CC(C)(C)c1ocnc1/C=c1\[nH]c(=O)/c(=C/c2cccc3ccccc23)[nH]c1=O,168 to 170
2,Cc1cccc(/C=c2\[nH]c(=O)/c(=C/c3ncoc3C(C)(C)C)[nH]c2=O)c1,151 to 153
3,CC(C)(C)c1ocnc1/C=c1\[nH]c(=O)/c(=C/c2cccc(Cl)c2)[nH]c1=O,171 to 173
4,CC(C)(C)c1ocnc1/C=c1\[nH]c(=O)/c(=C/c2cccc(Cl)c2Cl)[nH]c1=O,198 to 200
5,CC(C)(C)c1ocnc1/C=c1\[nH]c(=O)/c(=C/c2ccccn2)[nH]c1=O,230 to 232
6,CC(C)(C)c1ocnc1/C=c1\[nH]c(=O)/c(=C/c2cccc([N+](=O)[O-])c2)[nH]c1=O,225 to 227
7,CC(C)(C)c1ocnc1/C=c1\[nH]c(=O)/c(=C/c2ccc(Cl)o2)[nH]c1=O,214 to 216
8,C=Cc1cccc(/C=c2\[nH]c(=O)/c(=C/c3ncoc3C(C)(C)C)[nH]c2=O)c1,150 to 152
9,CC(C)(C)c1ocnc1/C=c1\[nH]c(=O)/c(=C/c2ccc(Br)o2)[nH]c1=O,184 to 186
10,CC(C)(C)c1ocnc1/C=c1\[nH]c(=O)/c(=C/c2cccs2)[nH]c1=O,211 to 213
11,Cc1cccc(/C=c2\[nH]c(=O)/c(=C/c3ncoc3C(C)(C)C)[nH]c2=O)c1C,167 to 169
12,CC(C)(C)c1ocnc1/C=c1\[nH]c(=O)/c(=C/c2cccc(C(F)(F)F)c2)[nH]c1=O,243 to 245
13,CC(C)(C)c1ocnc1/C=c1\[nH]c(=O)/c(=C/c2ccnc3ccccc23)[nH]c1=O,106 to 108
14,CC(C)(C)c1ocnc1/C=c1\[nH]c(=O)/c(=C/c2cccc(Oc3ccccc3)c2)[nH]c1=O,171 to 173
15,Cc1oc(-c2ccccc2)cc1/C=c1\[nH]c(=O)/c(=C/c2ncoc2C(C)(C)C)[nH]c1=O,218 to 220
16,CC(C)(C)c1ocnc1/C=c1\[nH]c(=O)/c(=C/c2cc3ccccc3n2S(=O)(=O)c2ccccc2)[nH]c1=O,145 to 147
17,CC(C)(C)c1ocnc1/C=c1\[nH]c(=O)/c(=C/c2ccc3nsnc3c2)[nH]c1=O,234 to 236
18,CC(C)(C)c1ocnc1/C=c1\[nH]c(=O)/c(=C/c2cc3ccccc3s2)[nH]c1=O,225 to 227
19,CC(C)(C)c1ocnc1/C=c1\[nH]c(=O)/c(=C/c2cc(F)cc3c2OCOC3)[nH]c1=O,189 to 191
